According to patent US20240226107A1, “UBIQUITIN-SPECIFIC PROTEASE 1 (USP1) INHIBITOR” (SIMCERE ZAIMING PHARMACEUTICAL CO., LTD., priority 2021, published 2024):
pIC50: −log10 of the molar value.

Experiments:
[1] = target: USP1 (Recombinant Human His6-USP1/His6-UAF1 Complex Protein) (Homo sapiens (Human), UniProt O94782); experiment: In vitro activity assay for USP1 (Ub-CHOP2-Reporter deubiquitination assay); assay type: biochemical; conditions: 0.5 h incubation at room temperature, read-out: In vitro inhibitory activity of USP1 IC50
Protocol: The assay kit (Ub-CHOP2-Reporter Deubiquitination Assay Kit) was purchased from Lifesensors, with Cat. No. of PR1101. The assay kit was subpackaged and stored at −80° C.
Each compound to be tested was dissolved with DMSO to 10 mM. The compound and pure DMSO (with a total volume of 50 nL) were loaded to each well of the 384-well plate by using an ECHO instrument to obtain gradient-diluted sample concentrations at different ratios. The enzyme was diluted with a freshly prepared reaction solution (20 mM Tris-HCl (pH 8.0), 2 mM CaCl2, 2 mM β-mercaptoethanol, 0.05% CHAPS, and ddH2O). To each well, 5 μL of diluted enzyme reaction solution was added, then the plate was centrifuged and oscillated to mix the enzyme and the compound, and the mixture was centrifuged again and placed on ice. The kit reporter system and the substrate were diluted with the reaction solution, then 5 μL of diluted liquid was added to each well, and mixed by centrifugation. The mixture was incubated at room temperature for 0.5 h. […] The inhibitory activity (IC50 values) of the compound on enzyme activity was calculated by using a four-parameter Logistic Model. […] A, B, C, and D are four parameters.
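Wherever GI50 is given: MDA-MB-436 proliferation over 7 days with compound, viability read as ATP luminescence (CellTiter-Glo), inhibition relative to DMSO-only wells, day 0 signal as background, GI50 from four-parameter fit.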

USP1 (Recombinant Human His6-USP1/His6-UAF1 Complex Protein), sequence (O94782 whole entry): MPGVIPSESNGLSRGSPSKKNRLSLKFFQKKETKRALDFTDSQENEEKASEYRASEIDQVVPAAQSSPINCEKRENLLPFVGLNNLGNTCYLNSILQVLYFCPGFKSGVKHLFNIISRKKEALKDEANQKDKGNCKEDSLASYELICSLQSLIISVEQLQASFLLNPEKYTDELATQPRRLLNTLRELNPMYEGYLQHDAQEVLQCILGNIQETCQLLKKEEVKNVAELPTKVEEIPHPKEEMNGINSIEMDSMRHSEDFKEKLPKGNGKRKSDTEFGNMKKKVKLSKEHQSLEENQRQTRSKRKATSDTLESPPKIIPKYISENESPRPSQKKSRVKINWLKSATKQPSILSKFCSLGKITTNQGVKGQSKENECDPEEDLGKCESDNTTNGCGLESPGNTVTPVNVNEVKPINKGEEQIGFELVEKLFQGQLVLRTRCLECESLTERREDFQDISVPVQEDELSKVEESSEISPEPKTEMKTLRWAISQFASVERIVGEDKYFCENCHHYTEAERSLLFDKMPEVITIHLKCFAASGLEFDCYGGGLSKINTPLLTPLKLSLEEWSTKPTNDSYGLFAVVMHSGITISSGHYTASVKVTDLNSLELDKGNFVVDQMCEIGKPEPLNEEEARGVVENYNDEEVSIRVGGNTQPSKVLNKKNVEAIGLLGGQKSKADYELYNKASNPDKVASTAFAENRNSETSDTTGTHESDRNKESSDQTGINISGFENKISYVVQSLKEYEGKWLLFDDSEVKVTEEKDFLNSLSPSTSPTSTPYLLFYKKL
USP1 (Recombinant Human His6-USP1/His6-UAF1 Complex Protein), sequence (Q8TAF3 whole entry partner): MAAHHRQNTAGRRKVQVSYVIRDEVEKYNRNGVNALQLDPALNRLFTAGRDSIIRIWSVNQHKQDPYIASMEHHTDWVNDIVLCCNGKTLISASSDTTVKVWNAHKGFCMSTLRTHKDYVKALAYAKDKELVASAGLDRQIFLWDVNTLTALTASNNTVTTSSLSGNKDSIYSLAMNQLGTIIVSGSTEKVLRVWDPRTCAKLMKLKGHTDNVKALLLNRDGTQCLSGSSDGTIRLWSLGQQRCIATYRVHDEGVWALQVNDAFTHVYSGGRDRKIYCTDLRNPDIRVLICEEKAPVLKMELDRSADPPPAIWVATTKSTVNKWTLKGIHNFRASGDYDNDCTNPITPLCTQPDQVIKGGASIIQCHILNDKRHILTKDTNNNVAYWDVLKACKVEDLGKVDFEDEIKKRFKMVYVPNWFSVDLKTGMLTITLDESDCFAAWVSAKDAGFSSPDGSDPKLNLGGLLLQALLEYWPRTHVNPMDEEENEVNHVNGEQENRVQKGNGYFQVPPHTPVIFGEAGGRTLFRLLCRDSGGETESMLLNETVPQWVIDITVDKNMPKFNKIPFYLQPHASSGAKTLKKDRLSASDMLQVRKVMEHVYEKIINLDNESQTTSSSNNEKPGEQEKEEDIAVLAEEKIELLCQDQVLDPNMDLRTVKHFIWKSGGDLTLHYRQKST

Compound: COc1ncnc(C2CC2)c1-c1ncc2c(n1)N(Cc1ccc(-c3nc(C(F)(F)F)cn3C)cc1)C(C)CO2 (stereo not shown) [Compound 23, 2-(4-cyclopropyl-6-methoxypyrimidin-5-yl)-7-methyl-8-(4-(1-methyl-4-(trifluoromethyl)-1H-imidazol-2-yl)benzyl)-7,8-dihydro-6H-pyrimido[5,4-b][1,4]oxazine]
- GI50 (MDA-MB-436 cells): 32.5 nM
- pIC50 [1]: 7.66

Compound: COc1ncnc(C2CC2)c1-c1ncc2c(n1)N(Cc1ccc(-c3nc(C(F)(F)F)cn3C)cc1)CC(=O)N2CC(F)(F)F [Compound 25, 2-(4-cyclopropyl-6-methoxypyrimidin-5-yl)-5-(2,2,2-trifluoroethyl)-8-(4-(1-methyl-4-(trifluoromethyl)-1H-imidazol-2-yl)benzyl)-7,8-dihydropteridin-6(5H)-one]
- GI50 (MDA-MB-436 cells): 84.8 nM
- pIC50 [1]: 7.57

Compound: COc1ncnc(C2CC2)c1-c1ncc2c(n1)N(Cc1ccc(-c3nc(C(F)(F)F)cn3C)cc1)C(=O)N(C)C2 [Compound 29, 7-(4-cyclopropyl-6-methoxypyrimidin-5-yl)-3-methyl-1-(4-(1-methyl-4-(trifluoromethyl)-1H-imidazol-2-yl)benzyl)-3,4-dihydropyrimido[4,5-d]pyrimidin-2(1H)-one]
- GI50 (MDA-MB-436 cells): 24.4 nM
- pIC50 [1]: 7.70

Compound: CCN1C(=O)CN(Cc2ccc(-c3nc(C(F)(F)F)cn3CC)cc2)c2nc(-c3c(OC)ncnc3C3CC3)ncc21 [Compound 34, 2-(4-cyclopropyl-6-methoxypyrimidin-5-yl)-5-ethyl-8-(4-(1-ethyl-4-(trifluoromethyl)-1H-imidazol-2-yl)benzyl)-7,8-dihydropteridin-6(5H)-one]
- GI50 (MDA-MB-436 cells): 39.6 nM
- pIC50 [1]: 7.72

Compound: COc1ncnc(C2CC2)c1-c1ncc2c(=O)n(C)c(=O)n(Cc3ccc(-c4nc(C(F)(F)F)cn4C)cc3)c2n1 [Compound 35, 7-(4-cyclopropyl-6-methoxypyrimidin-5-yl)-3-methyl-1-(4-(1-methyl-4-(trifluoromethyl)-1H-imidazol-2-yl)benzyl)pyrimido[4,5-d]pyrimidine-2,4(1H,3H)-dione]
- GI50 (MDA-MB-436 cells): 364 nM
- pIC50 [1]: 7.16

Compound: COc1ncnc(C2CC2)c1-c1ncc2c(n1)N(Cc1ccc(-c3nc(C(F)(F)F)cn3C)cc1)CN(C)C2=O [Compound 36, 7-(4-cyclopropyl-6-methoxypyrimidin-5-yl)-3-methyl-1-(4-(1-methyl-4-(trifluoromethyl)-1H-imidazol-2-yl)benzyl)-2,3-dihydropyrimido[4,5-d]pyrimidin-4(1H)-one]
- GI50 (MDA-MB-436 cells): 546 nM
- pIC50 [1]: 7.08

Compound: COc1ncnc(C2CC2)c1-c1ncc2c(n1)N(Cc1ccc(-c3nc(C(F)(F)F)cn3C)cc1)C1CCCN1C2=O (stereo not shown) [Compound 42, 2-(4-cyclopropyl-6-methoxypyrimidin-5-yl)-10-(4-(1-methyl-4-(trifluoromethyl)-1H-imidazol-2-yl)benzyl)-8,9,9a,10-tetrahydropyrimido[4,5-d]pyrrolo[1,2-a]pyrimidin-5(7H)-one]
- GI50 (MDA-MB-436 cells): 474 nM
- pIC50 [1]: 7.06

Compound: COc1ncnc(C2CC2)c1-c1ncc2c(n1)N(Cc1ccc(-n3nc(C(F)(F)F)cc3C)c(F)c1)CC(=O)N2C [Compound 44, 2-(4-cyclopropyl-6-methoxypyrimidin-5-yl)-5-methyl-8-(3-fluoro-4-(5-methyl-3-(trifluoromethyl)-1H-pyrazol-1-yl)benzyl)-7,8-dihydropteridin-6(5H)-one]
- GI50 (MDA-MB-436 cells): 27.5 nM
- pIC50 [1]: 7.86

Compound: Cn1cc(C(F)(F)F)nc1-c1ccc(CN2C(=O)OC(C)(C)c3cnc(-c4c(OC(F)F)ncnc4C4CC4)nc32)cc1F [Compound 57, 7-(4-cyclopropyl-6-(difluoromethoxy)pyrimidin-5-yl)-1-(3-fluoro-4-(1-methyl-4-(trifluoromethyl)-1H-imidazol-2-yl)benzyl)-4,4-dimethyl-1,4-dihydro-2H-pyrimido[4,5-d][1,3]oxazin-2-one]
- GI50 (MDA-MB-436 cells): 19.8 nM
- pIC50 [1]: 8.09

Compound: COc1ncnc(C2CC2)c1-c1ncc2c(n1)N(Cc1ccc(-c3nc(C(F)(F)F)cn3C)c(F)c1)C(=O)OC2(C)CO (stereo not shown) [Compound 58, 7-(4-cyclopropyl-6-methoxypyrimidin-5-yl)-1-(3-fluoro-4-(1-methyl-4-(trifluoromethyl)-1H-imidazol-2-yl)benzyl)-4-(hydroxymethyl)-4-methyl-1,4-dihydro-2H-pyrimido[4,5-d][1,3]oxazin-2-one]
- GI50 (MDA-MB-436 cells): 81.8 nM
- pIC50 [1]: 7.43

Compound: COc1ncnc(C2CC2)c1-c1ncc2nc(C)c(=O)n(Cc3ccc(-c4nc(C(F)(F)F)cn4C)cc3)c2n1 [Compound 61, 2-(4-cyclopropyl-6-methoxypyrimidin-5-yl)-6-methyl-8-(4-(1-methyl-4-(trifluoromethyl)-1H-imidazol-2-yl)benzyl)pteridin-7(8H)-one]
- GI50 (MDA-MB-436 cells): 81.4 nM
- pIC50 [1]: 7.44

Compound: COc1ncnc(C2CC2)c1-c1ncc2c(n1)N(Cc1cc(F)c(-c3nc(C(F)(F)F)cn3C)c(F)c1)CCO2 [Compound 62]
- GI50 (MDA-MB-436 cells): 12.3 nM
- pIC50 [1]: 8.01

Compound: COc1ncnc(C2CC2)c1-c1ncc2c(n1)N(Cc1cc(F)c(-c3nc(C(F)(F)F)cn3C)cc1F)CCO2 [Compound 63]
- GI50 (MDA-MB-436 cells): 24.5 nM
- pIC50 [1]: 7.95

Compound: COc1ncnc(C2CC2)c1-c1ncc2c(n1)N(Cc1ccc(-c3nc(C(F)(F)F)cn3C)c(F)c1)CC(=O)N2C [Compound 65, 2-(4-cyclopropyl-6-methoxypyrimidin-5-yl)-5-methyl-8-(3-fluoro-4-(1-methyl-4-(trifluoromethyl)-1H-imidazol-2-yl)benzyl)-7,8-dihydropteridin-6(5H)-one]
- GI50 (MDA-MB-436 cells): 26.8 nM
- pIC50 [1]: 7.55

Compound: COc1ncnc(C2CC2)c1-c1ncc2c(n1)N(Cc1ccc(-c3nc(C(F)(F)F)cn3C(C)C)c(F)c1)CC(=O)N2C [Compound 67, 2-(4-cyclopropyl-6-methoxypyrimidin-5-yl)-5-methyl-8-(3-fluoro-4-(1-isopropyl-4-(trifluoromethyl)-1H-imidazol-2-yl)benzyl)-7,8-dihydropteridin-6(5H)-one]
- GI50 (MDA-MB-436 cells): 17.3 nM
- pIC50 [1]: 7.77

Compound: CCn1cc(C(F)(F)F)nc1-c1ccc(CN2CC(=O)N(C)c3cnc(-c4c(OC)ncnc4C4CC4)nc32)cc1F [Compound 68, 2-(4-cyclopropyl-6-methoxypyrimidin-5-yl)-5-methyl-8-(3-fluoro-4-(1-ethyl-4-(trifluoromethyl)-1H-imidazol-2-yl)benzyl)-7,8-dihydropteridin-6(5H)-one]
- GI50 (MDA-MB-436 cells): 27 nM
- pIC50 [1]: 7.92

Compound: COc1ncnc(C2CC2)c1-c1ncc2c(n1)N(Cc1ccc(-c3nc(C(F)(F)F)cn3C)c(F)c1)CC(=O)N2C1CC1 [Compound 71, 2-(4-cyclopropyl-6-methoxypyrimidin-5-yl)-8-(3-fluoro-4-(1-methyl-4-(trifluoromethyl)-1H-imidazol-2-yl)benzyl)-5-cyclopropyl-7,8-dihydropteridin-6(5H)-one]
- GI50 (MDA-MB-436 cells): 74.1 nM
- pIC50 [1]: 7.15

Compound: CCn1cc(C(F)(F)F)nc1-c1ccc(CN2CC(=O)N(C3CC3)c3cnc(-c4c(OC)ncnc4C4CC4)nc32)cc1F [Compound 73, 2-(4-cyclopropyl-6-methoxypyrimidin-5-yl)-8-(3-fluoro-4-(1-ethyl-4-(trifluoromethyl)-1H-imidazol-2-yl)benzyl)-5-cyclopropyl-7,8-dihydropteridin-6(5H)-one]
- GI50 (MDA-MB-436 cells): 48 nM
- pIC50 [1]: 7.34

Compound: COc1ncnc(C2CC2)c1-c1ncc2c(n1)N(Cc1ccc(-c3nc(C(F)(F)F)cn3C3CC3)c(F)c1)CC(=O)N2C1CC1 [Compound 77, 2-(4-cyclopropyl-6-methoxypyrimidin-5-yl)-8-(3-fluoro-4-(1-cyclopropyl-4-(trifluoromethyl)-1H-imidazol-2-yl)benzyl)-5-cyclopropyl-7,8-dihydropteridin-6(5H)-one]
- GI50 (MDA-MB-436 cells): 48.7 nM
- pIC50 [1]: 7.74

Compound: COc1ncnc(C2CC2)c1-c1ncc2c(n1)N(Cc1ccc(-c3nc(C(F)(F)F)cn3C)cc1)CC(=O)N2C(C)C [Compound 78, 2-(4-cyclopropyl-6-methoxypyrimidin-5-yl)-8-(4-(1-methyl-4-(trifluoromethyl)-1H-imidazol-2-yl)benzyl)-5-isopropyl-7,8-dihydropteridin-6(5H)-one]
- GI50 (MDA-MB-436 cells): 53.1 nM
- pIC50 [1]: 7.02

Compound: COc1ncnc(C2CC2)c1-c1ncc2c(n1)N(Cc1ccc3c(c1)C(C)CCn1cc(C(F)(F)F)nc1-3)CC(=O)N2C (stereo not shown) [Compound 79, 2-(4-cyclopropyl-6-methoxypyrimidin-5-yl)-5-methyl-8-((7-methyl-2-(trifluoromethyl)-6,7-dihydro-5H-benzo[c]imidazo[1,2-a]azepin-9-yl)methyl)-7,8-dihydropteridin-6(5H)-one]
- GI50 (MDA-MB-436 cells): 80.2 nM
- pIC50 [1]: 7.02

Compound: COc1ncnc(C2CC2)c1-c1ncc2c(n1)N(Cc1ccc(-c3nc(C(F)(F)F)cn3C)cc1)C(=O)OC2C (stereo not shown) [Compound 81, 7-(4-cyclopropyl-6-methoxypyrimidin-5-yl)-4-methyl-1-(4-(1-methyl-4-(trifluoromethyl)-1H-imidazol-2-yl)benzyl)-1,4-dihydro-2H-pyrimido[4,5-d][1,3]oxazin-2-one]
- GI50 (MDA-MB-436 cells): 69.3 nM
- pIC50 [1]: 7.57

Compound: COc1ncnc(C2CC2)c1-c1ncc2c(n1)N(Cc1ccc3c(c1)CCCn1cc(C(F)(F)F)nc1-3)CC(=S)N2C [Compound 82, 2-(4-cyclopropyl-6-methoxypyrimidin-5-yl)-5-methyl-8-((2-(trifluoromethyl)-6,7-dihydro-5H-benzo[c]imidazo[1,2-a]azepin-9-yl)methyl)-7,8-dihydropteridine-6(5H)-thione]
- GI50 (MDA-MB-436 cells): 35.8 nM
- pIC50 [1]: 7.23
